# Test results from patent USRE50715E1, “Synthetic biochemistry molecular purge valve module that maintain co-factor balance” (The Regents of the University of California, priority 2014, dated 2025).
# T1: L. lactis NADH oxidase (H2O forming), NoxE, SEQ ID NO: 10 (Lactococcus lactis, UniProt Q9CIG9)
# T1 sequence (Q9CIG9 1-446): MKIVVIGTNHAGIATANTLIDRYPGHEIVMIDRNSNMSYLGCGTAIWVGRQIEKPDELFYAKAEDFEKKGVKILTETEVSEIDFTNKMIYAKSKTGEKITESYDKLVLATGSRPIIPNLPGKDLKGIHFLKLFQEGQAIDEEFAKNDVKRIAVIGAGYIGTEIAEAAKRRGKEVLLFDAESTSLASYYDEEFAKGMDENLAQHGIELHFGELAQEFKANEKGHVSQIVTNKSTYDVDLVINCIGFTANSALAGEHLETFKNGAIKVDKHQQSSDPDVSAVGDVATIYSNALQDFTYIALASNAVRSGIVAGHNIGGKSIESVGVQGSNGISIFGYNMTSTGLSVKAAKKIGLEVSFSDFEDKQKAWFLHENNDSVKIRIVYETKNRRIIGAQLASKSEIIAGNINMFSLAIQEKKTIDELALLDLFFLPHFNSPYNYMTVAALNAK
# Experiments:
# [1] = biological target: T2, G. stearothermophilus pyruvate dehydrogenase complex (GsPDH-NAD+, PDH^NADH), wild type (E1a SEQ ID NO: 1, E1b SEQ ID NO: 2, E2 SEQ ID NO: 3, E3^NADH SEQ ID NO: (Geobacillus stearothermophilus, UniProt P11959)); test: PDH kinetics, monitoring the reduction of NAD(P)^+ at 340 nm; type: biochemical
# T2 construct: made in house; host or cells: E. coli
# Description: (§1) The individual domains of G. stearothermophilus PDH were partially purified from E. coli lysates by heat prior to modification and reconstitution of the PDH complex. E1αβ, E2, or E3 containing lysates were incubated at 65° C. for 35 minutes to heat denature E. coli proteins followed by centrifugation at 30,000×g for 20 min to pellet the precipitated proteins. […] Next, the E2 domain was lipoated in the heated extract by the addition of 1 mM (±)-α-lipoic acid, 2 mM ATP, 3 mM MgCl2, and 50 μg of purified 6×His-LplA. The lipoation reaction was then allowed to proceed with gentle mixing overnight at 25° C., yielding lipoated E2 (E2lip). After lipoation, E1αβ, E2lip, and E3 were mixed in a 3:1:3 molar ratio and incubated for at least 1 hour at 25° C. to form the active GsPDH complex. The GsPDH complex was then isolated by ultracentrifugation (Beckman) for 4 hours at 95,000×g. […] The reconstituted complex was stored at 4° C. until use.
# [2] = biological target: T1, L. lactis NADH oxidase (H2O forming), NoxE, SEQ ID NO: 10; test: NoxE kinetics, monitoring the oxidation of NAD(P)H at 340 nm; type: biochemical
# [3] = biological target: T3, G. stearothermophilus pyruvate dehydrogenase complex, engineered mutant (GsPDH-NADP, PDH^NADPH), E3 mutant E206V, G207R, A208K, S213R (E3^NADPH SEQ ID NO: 7); E1 (Geobacillus stearothermophilus, UniProt P11959, A208K/E206V/G188A/G192A/G207R/S213R); test: PDH kinetics, monitoring the reduction of NAD(P)^+ at 340 nm; type: biochemical
# T3 construct: made in house; host or cells: E. coli
# Description: as §1
# [4] = substrate: NC(=O)c1ccc[n+]([C@@H]2O[C@H](COP(=O)(O)OP(=O)(O)OC[C@H]3O[C@@H](n4cnc5c(N)ncnc54)[C@H](OP(=O)(O)O)[C@@H]3O)[C@@H](O)[C@H]2O)c1; test: as above; type: biochemical, G. stearothermophilus; conditions: other: 50 mM Tris pH 7.5, 5 mM MgCl2, 5 mM pyruvate, 1 mM CoA, 0.5 mM NAD(P)+
# [5] = substrate: NC(=O)c1ccc[n+]([C@@H]2O[C@H](COP(=O)(O)OP(=O)(O)OC[C@H]3O[C@@H](n4cnc5c(N)ncnc54)[C@H](O)[C@@H]3O)[C@@H](O)[C@H]2O)c1; test: as above; type: biochemical, G. stearothermophilus; conditions: other: 50 mM Tris pH 7.5, 5 mM MgCl2, 5 mM pyruvate, 1 mM CoA, 0.5 mM NAD(P)+
# [6] = substrate: NC(=O)c1ccc[n+]([C@@H]2O[C@H](COP(=O)(O)OP(=O)(O)OC[C@H]3O[C@@H](n4cnc5c(N)ncnc54)[C@H](OP(=O)(O)O)[C@@H]3O)[C@@H](O)[C@H]2O)c1; test: cells, lysate or membranes named; conditions: other: 50 mM Tris pH 7.5, 5 mM MgCl2, 5 mM pyruvate, 1 mM CoA, 0.5 mM NAD(P)+
# [7] = substrate: NC(=O)c1ccc[n+]([C@@H]2O[C@H](COP(=O)(O)OP(=O)(O)OC[C@H]3O[C@@H](n4cnc5c(N)ncnc54)[C@H](O)[C@@H]3O)[C@@H](O)[C@H]2O)c1; test: cells, lysate or membranes named; conditions: other: 50 mM Tris pH 7.5, 5 mM MgCl2, 5 mM pyruvate, 1 mM CoA, 0.5 mM NAD(P)+
# [8] = substrate: NC(=O)C1=CN([C@@H]2O[C@H](COP(=O)(O)OP(=O)(O)OC[C@H]3O[C@@H](n4cnc5c(N)ncnc54)[C@H](O)[C@@H]3O)[C@@H](O)[C@H]2O)C=CC1; test: purified protein, by the assay type; conditions: other: 100 mM tris-HCl pH 7.5, 5 mM MgCl2, 5 mM KCl, 0.2 mM NAD(P)H
# [9] = substrate: NC(=O)C1=CN([C@@H]2O[C@H](COP(=O)(O)OP(=O)(O)OC[C@H]3O[C@@H](n4cnc5c(N)ncnc54)[C@H](OP(=O)(O)O)[C@@H]3O)[C@@H](O)[C@H]2O)C=CC1; test: purified protein, by the assay type; conditions: other: 100 mM tris-HCl pH 7.5, 5 mM MgCl2, 5 mM KCl, 0.2 mM NAD(P)H
molecule,measurement,setting,value
"NC(=O)c1ccc[n+]([C@@H]2O[C@H](COP(=O)(O)OP(=O)(O)OC[C@H]3O[C@@H](n4cnc5c(N)ncnc54)[C@H](O)[C@@H]3O)[C@@H](O)[C@H]2O)c1 [NAD+, nicotinamide adenine dinucleotide]","kcat ratio, NAD^+ vs NADP^+",[1]; kcat higher with NAD^+ than NADP^+,11.2 times
same,"kcat/Km ratio, NAD^+ vs NADP^+",[1]; kcat/Km higher with NAD^+ than NADP^+,1150 times
NC(=O)C1=CN([C@@H]2O[C@H](COP(=O)(O)OP(=O)(O)OC[C@H]3O[C@@H](n4cnc5c(N)ncnc54)[C@H](O)[C@@H]3O)[C@@H](O)[C@H]2O)C=CC1 [NADH],"Kcat ratio, NADH vs NADPH",[2]; Kcat greater with NADH than NADPH,248.8 times
same,"kcat/Km ratio, NADH vs NADPH",[2]; kcat/Km greater with NADH than NADPH,9900 times
NC(=O)c1ccc[n+]([C@@H]2O[C@H](COP(=O)(O)OP(=O)(O)OC[C@H]3O[C@@H](n4cnc5c(N)ncnc54)[C@H](OP(=O)(O)O)[C@@H]3O)[C@@H](O)[C@H]2O)c1 [NADP+],"kcat ratio, NADP^+ vs NAD+",[3]; kcat higher with NADP^+ than NAD+,7.3 times
same,"kcat/Km ratio, NADP^+ vs NAD+",[3]; kcat/Km higher with NADP^+ than NAD+,21 times
"G. stearothermophilus pyruvate dehydrogenase complex, engineered mutant (GsPDH-NADP, PDH^NADPH), E3 mutant E206V, G207R, A208K, S213R (E3^NADPH SEQ ID NO: 7; … (protein, made in house; host or cells: E. coli) MVVGDFAIETETLVVGAGPGGYVAAIRAAQLGQKVTIVEKGNLGGVCLNVGCIPSKALISASHRYEQAKHSEEMGIKAENVTIDFAKVQEWKASVVKKLTGGVEGLLKGNKVEIVKGEAYFVDANTVRVVNGDSAQTYTFKNAIIATGSRPIELPNFKFSNRILDSTGALNLGEVPKSLVVIGGGYIAIELATAYANFGTKVTILVRKGEILRGFEKQMAAIIKKRLKKKGVEVVTNALAKGAEEREDGVTVTYEANGETKTIDADYVLVTVGRRPNTDELGLEQIGIKMTNRGLIEVDQQCRTSVPNIFAIGDIVPGPALAHKASYEGKVAAEAIAGHPSAVDYVAIPAVVFSDPECASVGYFEQQAKDEGIDVIAAKFPFAANGRALALNDTDGFLKLVVRKEDGVIIGAQIIGPNASDMIAELGLAIEAGMTAEDIALTIHAHPTLGEIAMEAAEVALGTPIHIITK",Km,[4],0.157 ± 0.013 mM
same,Km,[5],0.4527 ± 0.178 mM
"G. stearothermophilus pyruvate dehydrogenase complex (GsPDH-NAD+, PDH^NADH), wild type (E1a SEQ ID NO: 1, E1b SEQ ID NO: 2, E2 SEQ ID NO: 3, E3^NADH SEQ ID NO: … (protein) MVVGDFAIETETLVVGAGPGGYVAAIRAAQLGQKVTIVEKGNLGGVCLNVGCIPSKALISASHRYEQAKHSEEMGIKAENVTIDFAKVQEWKASVVKKLTGGVEGLLKGNKVEIVKGEAYFVDANTVRVVNGDSAQTYTFKNAIIATGSRPIELPNFKFSNRILDSTGALNLGEVPKSLVVIGGGYIGIELGTAYANFGTKVTILEGAGEILSGFEKQMAAIIKKRLKKKGVEVVTNALAKGAEEREDGVTVTYEANGETKTIDADYVLVTVGRRPNTDELGLEQIGIKMTNRGLIEVDQQCRTSVPNIFAIGDIVPGPALAHKASYEGKVAAEAIAGHPSAVDYVAIPAVVFSDPECASVGYFEQQAKDEGIDVIAAKFPFAANGRALALNDTDGFLKLVVRKEDGVIIGAQIIGPNASDMIAELGLAIEAGMTAEDIALTIHAHPTLGEIAMEAAEVALGTPIHIITK",Km,[6],1.381 ± 0.41 mM
same,Km,[7],0.01338 ± 0.00083 mM
"L. lactis NADH oxidase (H2O forming), NoxE, SEQ ID NO: 10 (Lactococcus lactis subsp. lactis Il1403) (protein) MKIVVIGTNHAGIATANTLIDRYPGHEIVMIDRNSNMSYLGCGTAIWVGRQIEKPDELFYAKAEDFEKKGVKILTETEVSEIDFTNKMIYAKSKTGEKITESYDKLVLATGSRPIIPNLPGKDLKGIHFLKLFQEGQAIDEEFAKNDVKRIAVIGAGYIGTEIAEAAKRRGKEVLLFDAESTSLASYYDEEFAKGMDENLAQHGIELHFGELAQEFKANEKGHVSQIVTNKSTYDVDLVINCIGFTANSALAGEHLETFKNGAIKVDKHQQSSDPDVSAVGDVATIYSNALQDFTYIALASNAVRSGIVAGHNIGGKSIESVGVQGSNGISIFGYNMTSTGLSVKAAKKIGLEVSFSDFEDKQKAWFLHENNDSVKIRIVYETKNRRIIGAQLASKSEIIAGNINMFSLAIQEKKTIDELALLDLFFLPHFNSPYNYMTVAALNAK",Km,[8],0.07493 ± 0.026 mM
same,Km,[9],2.9515 ± 0.77 mM
